How the values were obtained:
[1] = target: isoleucine-tRNA synthase enzyme (Escherichia coli, UniProt P00956); settings: affects the peptide synthesis of pathogen bacteria; cited from earlier work
[2] = both for humans and animals; cited from earlier work
[3] = system: Bacillus subtilis ATCC 6633; test: agar diffusion microbial method; type: cell-based; settings: beef-extract-peptone-glucose agar, pH 6.5, Bacillus subtilis ATCC 6633
Description: The antibacterial activity of the pseudomonic acid antibiotic complex is determined by agar diffusion microbial method. The medium is a beef-extract-peptone-glucose-containing agar, its pH is 6.5 and the test organism is Bacillus subtilis ATCC 6633.

isoleucine-tRNA synthase enzyme, sequence (P00956 whole entry): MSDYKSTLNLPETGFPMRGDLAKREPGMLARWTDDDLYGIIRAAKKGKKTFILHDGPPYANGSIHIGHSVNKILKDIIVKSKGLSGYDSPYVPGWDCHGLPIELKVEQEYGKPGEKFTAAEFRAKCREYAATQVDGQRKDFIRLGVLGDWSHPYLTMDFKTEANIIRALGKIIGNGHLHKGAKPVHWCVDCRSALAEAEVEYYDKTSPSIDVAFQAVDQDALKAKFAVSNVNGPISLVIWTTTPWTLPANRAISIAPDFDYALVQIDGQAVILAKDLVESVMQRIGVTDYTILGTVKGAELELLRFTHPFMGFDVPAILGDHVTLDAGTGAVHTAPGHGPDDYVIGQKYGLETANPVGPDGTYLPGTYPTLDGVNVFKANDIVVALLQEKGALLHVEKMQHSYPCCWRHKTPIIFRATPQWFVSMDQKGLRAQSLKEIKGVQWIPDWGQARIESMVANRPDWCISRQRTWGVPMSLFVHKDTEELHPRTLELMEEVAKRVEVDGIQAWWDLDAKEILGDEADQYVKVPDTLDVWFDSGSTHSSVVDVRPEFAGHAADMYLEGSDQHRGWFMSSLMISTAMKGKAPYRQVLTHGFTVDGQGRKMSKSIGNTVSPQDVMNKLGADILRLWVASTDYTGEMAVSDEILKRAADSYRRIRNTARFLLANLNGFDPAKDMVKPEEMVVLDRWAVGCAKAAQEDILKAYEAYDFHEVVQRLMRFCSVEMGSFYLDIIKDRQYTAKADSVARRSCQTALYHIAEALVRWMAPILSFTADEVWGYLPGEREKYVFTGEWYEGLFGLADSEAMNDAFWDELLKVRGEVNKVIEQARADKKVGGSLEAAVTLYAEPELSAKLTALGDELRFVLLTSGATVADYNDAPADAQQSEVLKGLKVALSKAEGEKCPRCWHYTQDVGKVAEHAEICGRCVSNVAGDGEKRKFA

Row | Structure (SMILES) | inhibition of isoleucine-tRNA synthase enzyme [1] | toxicity [2] | specific activity against the test-microorganism relating to the component A [3]
1 | C/C(=C\C(=O)OCCCCCCCCC(=O)O)CC1OC[C@H](C[C@@H]2O[C@H]2[C@@H](C)[C@H](C)O)[C@@H](O)[C@H]1O (stereo partly drawn) [Pseudomonic acid A, 9-{4[5S(2S,3S-epoxy-5S-hydroxy-4S-methylhexyl)-3R,4R-dihydroxy-tetrahydropyran-2S-yl]-3-methylbut-2(E)-enoyloxy}nonanoic acid] | inhibiting | very low toxicity | 
2 | C/C(=C\C(=O)OCCCCCCCCC(=O)O)CC1OC[C@](O)(C[C@@H]2O[C@H]2[C@@H](C)[C@H](C)O)[C@@H](O)[C@H]1O (stereo partly drawn) [component B, pseudomonic acid B] |  |  | considerably weaker

Reference: US7078223B2, “Process for the preparation of pseudomonic acid a antibiotic by microbiological method” (TEVA Gyógyszergyár Zártkörüen Müködö Részvénytársaság, priority 1999, dated 2006)
